Assay results: US11192867B2, “Microbiocidal oxadiazole derivatives” (SYNGENTA PARTICIPATIONS AG, priority 2016, dated 2021)

How the values were obtained:
[1] = test system: Glomerella lagenarium (Colletotrichum lagenarium); experiment: Fungicidal activity against Glomerella lagenarium (Colletotrichum lagenarium) liquid culture / cucumber / preventative (anthracnose); format: cell-based; details: Colletotrichum orbiculare, 72 h; 20 ppm in the applied formulation; liquid culture (PDB), growth inhibition measured photometrically 3 to 4 days after application; vs untreated control; read-out: disease control
Procedure, shortened: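 In liquid culture, cryo-stored conidia in potato dextrose broth were exposed to compound delivered from DMSO solution. Growth inhibition was measured photometrically after 3 to 4 days at 24° C.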

[2] = test system: Puccinia recondita f. sp. Tritici; experiment: Fungicidal activity against Puccinia recondita f. sp. Tritici / wheat / leaf disc curative (brown rust); format: in vivo; details: foliar, 24 h, 200 ppm in the applied formulation, wheat leaf segments cv. Kanzler, applied 1 day after inoculation, vs untreated control, read-out: disease control
Description: Leaf disks or leaf segments of various plant species are cut from plants grown in a greenhouse. The cut leaf disks or segments are placed in multiwell plates (24-well format) onto water agar. The leaf disks are sprayed with a test solution before (preventative) or after (curative) inoculation. Compounds to be tested are prepared as DMSO solutions (max. 10 mg/ml) which are diluted to the appropriate concentration with 0.025% Tween20 just before spraying. The inoculated leaf disks or segments are incubated under defined conditions (temperature, relative humidity, light, etc.) according to the respective test system. A single evaluation of disease level is carried out 3 to 14 days after inoculation, depending on the pathosystem. Percent disease control relative to the untreated check leaf disks or segments is then calculated.
Wheat leaf segments cv. Kanzler are placed on agar in multiwell plates (24-well format). The leaf segments are then inoculated with a spore suspension of the fungus. Plates were stored in darkness at 19° C. and 75% relative humidity. The formulated test compound diluted in water was applied 1 day after inoculation. The leaf segments were incubated at 19° C. and 75% relative humidity under a light regime of 12 hours light/12 hours darkness in a climate cabinet and the activity of a compound was assessed as percent disease control compared to untreated when an appropriate level of disease damage appears in untreated check leaf segments (6 to 8 days after application).
The following compounds at 200 ppm in the applied formulation give at least 80% disease control in this test when compared to untreated control leaf disks under the same conditions, which show extensive disease development.

Phakopsora pachyrhizi = experiment: Fungicidal activity against Phakopsora pachyrhizi / soybean / leaf disc preventative (Asian soybean rust); format: in vivo; details: foliar, 200 ppm in the applied formulation, soybean leaf disks, vs untreated control, read-out: disease control
Procedure, shortened: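 Soybean leaf discs on water agar sprayed with compound diluted in water, then inoculated with spores on the lower surface one day later. Kept 24-36 h dark, 20 °C, 75% rh, then 12 h light/12 h dark. Percent disease control versus untreated scored 12-14 days after application.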

[3] = test system: Puccinia recondita f. sp. Tritici; experiment: Fungicidal activity against Puccinia recondita f. sp. Tritici / wheat / leaf disc preventative (brown rust); format: in vivo; details: foliar, 200 ppm in the applied formulation, wheat leaf segments cv. Kanzler, inoculated 1 day after application, vs untreated control, read-out: disease control
Procedure, shortened: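 Sprayed at 200 ppm one day ahead of spore inoculation, wheat leaf segments of cultivar Kanzler sat on agar under 19° C., 75% relative humidity and alternating 12-hour light and dark. Efficacy was taken as percent disease control relative to untreated segments after 7 to 9 days.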

CON=CC(C)(C)NC(=O)c1ccc(-c2noc(C(F)(F)F)n2)cc1 [Compound 1.1, N-(2-methoxyimino-1,1-dimethyl-ethyl)-4-[5-(trifluoromethyl)-1,2,4-oxadiazol-3-yl]benzamide]
≥ 80%: inhibition of growth at 20 ppm [1] | pest or weed control at 200 ppm [2]

CON=CC(C)(C)NC(=O)c1ccc(-c2noc(C(F)(F)F)n2)cc1F [Compound 1.2, 2-fluoro-N-(2-methoxyimino-1,1-dimethyl-ethyl)-4-[5-(trifluoromethyl)-1,2,4-oxadiazol-3-yl]benzamide]
≥ 80%: pest or weed control at 200 ppm (Phakopsora pachyrhizi) | inhibition of growth at 20 ppm [1] | pest or weed control at 200 ppm [2]

CO/N=C/CNC(=O)c1ccc(-c2noc(C(F)(F)F)n2)cc1F [Compound 1.4, 2-fluoro-N-[(2E)-2-methoxyimino-ethyl]-4-[5-(trifluoromethyl)-1,2,4-oxadiazol-3-yl]benzamide]
≥ 80%: pest or weed control at 200 ppm (Phakopsora pachyrhizi) | pest or weed control at 200 ppm [3] | inhibition of growth at 20 ppm [1] | pest or weed control at 200 ppm [2]

CO/N=C\NC(=O)c1ccc(-c2noc(C(F)(F)F)n2)cc1 [Compound 1.5, N-[(Z)-methoxyiminomethyl]-4-[5-(trifluoromethyl)-1,2,4-oxadiazol-3-yl]benzamide]
≥ 80%: pest or weed control at 200 ppm (Phakopsora pachyrhizi) | pest or weed control at 200 ppm [3] | inhibition of growth at 20 ppm [1] | pest or weed control at 200 ppm [2]

CC(C=NOCCO)NC(=O)c1ccc(-c2noc(C(F)(F)F)n2)cc1 (centres unmarked) [Compound 1.15, N-[2-(2-hydroxyethoxy-imino)-1-methyl-ethyl]-4-[5-(trifluoromethyl)-1,2,4-oxadiazol-3-yl]benzamide]
≥ 80%: pest or weed control at 200 ppm (Phakopsora pachyrhizi) | pest or weed control at 200 ppm [3] | inhibition of growth at 20 ppm [1] | pest or weed control at 200 ppm [2]

CC(C=NOCc1ccc([N+](=O)[O-])cc1)NC(=O)c1ccc(-c2noc(C(F)(F)F)n2)cc1 (centres unmarked) [Compound 1.16, N-[1-methyl-2-[(4-nitrophenyl)methoxyimino]ethyl]-4-[5-(trifluoromethyl)-1,2,4-oxadiazol-3-yl]benzamide]
≥ 80%: pest or weed control at 200 ppm (Phakopsora pachyrhizi) | pest or weed control at 200 ppm [2]

COc1cccc(CON=CC(C)NC(=O)c2ccc(-c3noc(C(F)(F)F)n3)cc2)c1 (centres unmarked) [Compound 1.17, N-[2-[(3-methoxyphenyl)methoxyimino]-1-methyl-ethyl]-4-[5-(trifluoromethyl)-1,2,4-oxadiazol-3-yl]benzamide]
≥ 80%: pest or weed control at 200 ppm (Phakopsora pachyrhizi) | inhibition of growth at 20 ppm [1] | pest or weed control at 200 ppm [2]

Cc1ccc(CON=CC(C)NC(=O)c2ccc(-c3noc(C(F)(F)F)n3)cc2)cc1 (centres unmarked) [Compound 1.18, N-[1-methyl-2-(p-tolylmethoxyimino)ethyl]-4-[5-(trifluoromethyl)-1,2,4-oxadiazol-3-yl]benzamide]
≥ 80%: pest or weed control at 200 ppm [2]

COc1ccc(CON=CC(C)NC(=O)c2ccc(-c3noc(C(F)(F)F)n3)cc2)cc1 (centres unmarked) [Compound 1.19, N-[2-[(4-methoxyphenyl)methoxyimino]-1-methyl-ethyl]-4-[5-(trifluoromethyl)-1,2,4-oxadiazol-3-yl]benzamide]
≥ 80%: pest or weed control at 200 ppm (Phakopsora pachyrhizi) | pest or weed control at 200 ppm [2]

CC(C=NOCC(=O)O)NC(=O)c1ccc(-c2noc(C(F)(F)F)n2)cc1 (centres unmarked) [Compound 1.20, 2-[2-[[4-[5-(trifluoromethyl)-1,2,4-oxadiazol-3-yl]benzoyl]amino]propylidene-amino] oxyacetic acid]
≥ 80%: pest or weed control at 200 ppm [3] | inhibition of growth at 20 ppm [1] | pest or weed control at 200 ppm [2]

CC(C=NOCCN)NC(=O)c1ccc(-c2noc(C(F)(F)F)n2)cc1 (centres unmarked) [Compound 1.21, N-[2-(2-aminoethoxy-imino)-1-methyl-ethyl]-4-[5-(trifluoromethyl)-1,2,4-oxadiazol-3-yl]benzamide]
≥ 80%: pest or weed control at 200 ppm (Phakopsora pachyrhizi) | pest or weed control at 200 ppm [3] | pest or weed control at 200 ppm [2]

CC(C=NO[C@H](C)C(=O)O)NC(=O)c1ccc(-c2noc(C(F)(F)F)n2)cc1 (stereo partly drawn) [Compound 1.29, (2R)-2-[2-[[4-[5-(trifluoromethyl)-1,2,4-oxadiazol-3-yl]benzoyl]amino]propylideneamino] oxypropanoic acid]
≥ 80%: pest or weed control at 200 ppm [3] | inhibition of growth at 20 ppm [1] | pest or weed control at 200 ppm [2]

CC(C=NO[C@@H](C)C(=O)O)NC(=O)c1ccc(-c2noc(C(F)(F)F)n2)cc1 (stereo partly drawn) [Compound 1.32, (2S)-2-[2-[[4-[5-(trifluoromethyl)-1,2,4-oxadiazol-3-yl]benzoyl]amino]propylideneamino] oxypropanoic acid]
≥ 80%: pest or weed control at 200 ppm [3] | inhibition of growth at 20 ppm [1] | pest or weed control at 200 ppm [2]

CC(C=NOCC=CCl)NC(=O)c1ccc(-c2noc(C(F)(F)F)n2)cc1 (centres unmarked) [Compound 1.33, N-[2-(3-chloroallyloxy-imino)-1-methyl-ethyl]-4-[5-(trifluoromethyl)-1,2,4-oxadiazol-3-yl]benzamide]
≥ 80%: pest or weed control at 200 ppm (Phakopsora pachyrhizi) | pest or weed control at 200 ppm [3] | inhibition of growth at 20 ppm [1] | pest or weed control at 200 ppm [2]

CC(C=NOC/C=C\Cl)NC(=O)c1ccc(-c2noc(C(F)(F)F)n2)cc1 (centres unmarked) [Compound 1.36, N-[2-[(Z)-3-chloroallyloxy]imino-1-methyl-ethyl]-4-[5-(trifluoromethyl)-1,2,4-oxadiazol-3-yl]benzamide]
≥ 80%: pest or weed control at 200 ppm (Phakopsora pachyrhizi) | pest or weed control at 200 ppm [3] | inhibition of growth at 20 ppm [1] | pest or weed control at 200 ppm [2]

CC(C=NOC(C)C(=O)O)NC(=O)c1ccc(-c2noc(C(F)(F)F)n2)cc1 (centres unmarked) [Compound 1.37, 2-[2-[[4-[5-(trifluoromethyl)-1,2,4-oxadiazol-3-yl]benzoyl]amino]propylideneamino] oxypropanoic acid]
≥ 80%: pest or weed control at 200 ppm [3] | inhibition of growth at 20 ppm [1] | pest or weed control at 200 ppm [2]

CCON=CC(C)NC(=O)c1ccc(-c2noc(C(F)(F)F)n2)cc1 (centres unmarked) [Compound 1.43, N-(2-ethoxyimino-1-methyl-ethyl)-4-[5-(trifluoromethyl)-1,2,4-oxadiazol-3-yl]benzamide]
≥ 80%: pest or weed control at 200 ppm (Phakopsora pachyrhizi) | pest or weed control at 200 ppm [3] | inhibition of growth at 20 ppm [1] | pest or weed control at 200 ppm [2]

C=CCON=CC(C)NC(=O)c1ccc(-c2noc(C(F)(F)F)n2)cc1 (centres unmarked) [Compound 1.46, N-(2-allyloxyimino-1-methyl-ethyl)-4-[5-(trifluoromethyl)-1,2,4-oxadiazol-3-yl]benzamide]
≥ 80%: pest or weed control at 200 ppm (Phakopsora pachyrhizi) | pest or weed control at 200 ppm [3] | inhibition of growth at 20 ppm [1] | pest or weed control at 200 ppm [2]

C[C@H](ON=CCNC(=O)c1ccc(-c2noc(C(F)(F)F)n2)cc1)C(=O)O [Compound 1.77, (2S)-2-[2-[[4-[5-(trifluoromethyl)-1,2,4-oxadiazol-3-yl]benzoyl]amino]ethylideneamino] oxypropanoic acid]
≥ 80%: pest or weed control at 200 ppm [3] | inhibition of growth at 20 ppm [1] | pest or weed control at 200 ppm [2]

CC(CNC(=O)c1ccc(-c2noc(C(F)(F)F)n2)cc1)=NO[C@H](C)C(=O)O [Compound 1.117, (2R)-2-[[1-methyl-2-[[4-[5-(trifluoromethyl)-1,2,4-oxadiazol-3-yl]benzoyl]amino]ethylidene]amino] oxypropanoic acid]
≥ 80%: pest or weed control at 200 ppm [3] | inhibition of growth at 20 ppm [1] | pest or weed control at 200 ppm [2]

CC(CNC(=O)c1ccc(-c2noc(C(F)(F)F)n2)cc1)=NO[C@@H](C)C(=O)O [Compound 1.120, (2S)-2-[[1-methyl-2-[[4-[5-(trifluoromethyl)-1,2,4-oxadiazol-3-yl]benzoyl]amino]ethylidene]amino] oxypropanoic acid]
≥ 80%: pest or weed control at 200 ppm [3] | inhibition of growth at 20 ppm [1] | pest or weed control at 200 ppm [2]

CC(CNC(=O)c1ccc(-c2noc(C(F)(F)F)n2)cc1)=NOC(C)C(=O)O (centres unmarked) [Compound 1.125, 2-[[1-methyl-2-[[4-[5-(trifluoromethyl)-1,2,4-oxadiazol-3-yl]benzoyl]amino]ethylidene]amino] oxypropanoic acid]
≥ 80%: pest or weed control at 200 ppm [3] | inhibition of growth at 20 ppm [1] | pest or weed control at 200 ppm [2]
